Data published in patent US6509401B1, “Synergistic flame retardant combination of salts of 1-hydroxy-dihydrophosphole oxides and/or 1-hydroxyphospholane oxides and nitrogen compounds for use in polymers” (Clariant GmbH, priority 1997, dated 2003).

Assay: Comparison of water solubilities at 20° C.
Type: physicochemical
Procedure: Comparison of Water Solubilities at 20° C.

| Compound | Water solubility |
| --- | --- |
| CCP(C)(=O)[O-].CCP(C)(=O)[O-].CCP(C)(=O)[O-].[Al+3] [MEPAL, Aluminum salt of methylethylphosphinic acid] | 6300 µg/mL |
| O=P1([O-])CCCC1.O=P1([O-])CCCC1.O=P1([O-])CCCC1.[Al+3] [PHOLAL, Aluminum salt of 1-hydroxy-1H-phospholane 1-oxide] | 4300 µg/mL |
